According to the supplement of paper PMC10307832:

Columns and labels:
Test in all cases: relative viability (nuclei count vs DMSO), 5 days (fraction); higher = more cells survive
HCC-78 = test system: HCC-78
Procedure, shortened: (§1)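 Values are medians from duplicate plates. Each reflects relative viability, defined as the nuclei count of treated wells over that of vehicle wells. Lung cancer cell lines in 1536-well plates were pin-tool dosed one day after seeding with one drug alone or with a fixed anchor-drug dose plus five library-drug doses (not always all listed) in √10 steps, then fixed, stained and imaged at 4× after 5 days.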

NCI-H727 = test system: NCI-H727
Procedure, shortened: as §1

NCI-H1563 = test system: NCI-H1563
Procedure, shortened: as §1

NCI-H1734 = test system: NCI-H1734
Procedure, shortened: as §1

LU99A = test system: LU99A
Procedure, shortened: as §1

RERF-LC-KJ = test system: RERF-LC-KJ
Procedure, shortened: as §1

NCI-H2126 = test system: NCI-H2126
Procedure, shortened: as §1

LCLC-97TM1 = test system: LCLC-97TM1
Procedure, shortened: as §1

EMC-BAC-2 = test system: EMC-BAC-2
Procedure, shortened: as §1

NCI-H2087 = test system: NCI-H2087
Procedure, shortened: as §1

NCI-H1944 = test system: NCI-H1944
Procedure, shortened: as §1

COR-L 105 = test system: COR-L 105
Procedure, shortened: as §1

EKVX = test system: EKVX
Procedure, shortened: as §1

EPLC-272H = test system: EPLC-272H
Procedure, shortened: as §1

LK-2 = test system: LK-2
Procedure, shortened: as §1

SW 1573 = test system: SW 1573
Procedure, shortened: as §1

LOU-NH91 = test system: LOU-NH91
Procedure, shortened: as §1

NCI-H358 = test system: NCI-H358
Procedure, shortened: as §1

BEN = test system: BEN
Procedure, shortened: as §1

NCI-H1792 = test system: NCI-H1792
Procedure, shortened: as §1

HCC-827 = test system: HCC-827
Procedure, shortened: as §1

SK-MES-1 = test system: SK-MES-1
Procedure, shortened: as §1

`CCCCCCCCCCCC1=C(O)C(=O)C=C(O)C1=O` [Embelin] + C[C@]1(O)C[C@@H](c2nc(-c3ccc4ccc(-c5ccccc5)nc4c3)c3c(N)nccn32)C1 [Linsitinib] (partner 1 µM) gave a relative viability (HCC-78; first compound 0.08 µM) of 0.516, a relative viability (HCC-78; first compound 0.8 µM) of 0.623 and a relative viability (HCC-78; first compound 2.53 µM) of 0.52. It also gave a relative viability (HCC-78; first compound 8 µM) of 0.413, a relative viability (NCI-H727; first compound 0.08 µM) of 0.282 and a relative viability (NCI-H727; first compound 0.8 µM) of 0.192. For the same molecule, the relative viability (NCI-H727; first compound 2.53 µM) was 0.307, the relative viability (NCI-H727; first compound 8 µM) was 0.268 and the relative viability (NCI-H1563; first compound 0.08 µM) was 1.14. The relative viability (NCI-H1563; first compound 0.8 µM) was 1.18, the relative viability (NCI-H1563; first compound 2.53 µM) was 1.16 and the relative viability (NCI-H1563; first compound 8 µM) was 1.16. It also gave a relative viability (NCI-H1734; first compound 0.08 µM) of 0.832, a relative viability (NCI-H1734; first compound 0.8 µM) of 1.05 and a relative viability (NCI-H1734; first compound 2.53 µM) of 0.927. The relative viability (NCI-H1734; first compound 8 µM) was 0.876, the relative viability (LU99A; first compound 0.08 µM) was 0.537 and the relative viability (LU99A; first compound 0.8 µM) was 0.618. For the same molecule, the relative viability (LU99A; first compound 2.53 µM) was 0.552, the relative viability (LU99A; first compound 8 µM) was 0.472 and the relative viability (RERF-LC-KJ; first compound 0.08 µM) was 0.905. The relative viability (RERF-LC-KJ; first compound 0.8 µM) was 0.89, the relative viability (RERF-LC-KJ; first compound 2.53 µM) was 0.961 and the relative viability (RERF-LC-KJ; first compound 8 µM) was 0.908. It also gave a relative viability (NCI-H2126; first compound 0.08 µM) of 0.714, a relative viability (NCI-H2126; first compound 0.8 µM) of 0.787 and a relative viability (NCI-H2126; first compound 2.53 µM) of 0.746. For the same molecule, the relative viability (NCI-H2126; first compound 8 µM) was 0.676, the relative viability (LCLC-97TM1; first compound 0.8 µM) was 0.239 and the relative viability (LCLC-97TM1; first compound 2.53 µM) was 0.233. For the same molecule, the relative viability (LCLC-97TM1; first compound 8 µM) was 0.204, the relative viability (EMC-BAC-2; first compound 0.08 µM) was 0.845 and the relative viability (EMC-BAC-2; first compound 0.8 µM) was 0.862. It also gave a relative viability (EMC-BAC-2; first compound 2.53 µM) of 0.844, a relative viability (EMC-BAC-2; first compound 8 µM) of 0.842 and a relative viability (NCI-H2087; first compound 0.08 µM) of 0.998. For the same molecule, the relative viability (NCI-H2087; first compound 0.8 µM) was 0.97, the relative viability (NCI-H2087; first compound 2.53 µM) was 1.01 and the relative viability (NCI-H2087; first compound 8 µM) was 0.916. For the same molecule, the relative viability (NCI-H1944; first compound 0.08 µM) was 1.15, the relative viability (NCI-H1944; first compound 0.8 µM) was 1.39 and the relative viability (NCI-H1944; first compound 2.53 µM) was 1.17. The relative viability (NCI-H1944; first compound 8 µM) was 1.12, the relative viability (COR-L 105; first compound 0.08 µM) was 1.02 and the relative viability (COR-L 105; first compound 0.8 µM) was 1.33. For the same molecule, the relative viability (COR-L 105; first compound 2.53 µM) was 0.88, the relative viability (COR-L 105; first compound 8 µM) was 0.874 and the relative viability (EKVX; first compound 0.08 µM) was 0.967. It also gave a relative viability (EKVX; first compound 0.8 µM) of 1.09, a relative viability (EKVX; first compound 2.53 µM) of 1.2 and a relative viability (EKVX; first compound 8 µM) of 1.06. It also gave a relative viability (EPLC-272H; first compound 0.08 µM) of 1.31, a relative viability (EPLC-272H; first compound 0.8 µM) of 1.48 and a relative viability (EPLC-272H; first compound 2.53 µM) of 1.32. It also gave a relative viability (EPLC-272H; first compound 8 µM) of 1.03, a relative viability (LK-2; first compound 0.08 µM) of 0.685 and a relative viability (LK-2; first compound 0.8 µM) of 0.525. It also gave a relative viability (LK-2; first compound 2.53 µM) of 0.805, a relative viability (LK-2; first compound 8 µM) of 0.547 and a relative viability (SW 1573; first compound 0.08 µM) of 0.842. For the same molecule, the relative viability (SW 1573; first compound 0.8 µM) was 0.924, the relative viability (SW 1573; first compound 2.53 µM) was 0.75 and the relative viability (SW 1573; first compound 8 µM) was 0.832. The relative viability (LOU-NH91; first compound 0.08 µM) was 1.02, the relative viability (LOU-NH91; first compound 0.8 µM) was 1.23 and the relative viability (LOU-NH91; first compound 2.53 µM) was 1.03. The relative viability (LOU-NH91; first compound 8 µM) was 0.877, the relative viability (NCI-H358; first compound 0.08 µM) was 0.691 and the relative viability (NCI-H358; first compound 0.8 µM) was 0.908. It also gave a relative viability (NCI-H358; first compound 2.53 µM) of 0.92, a relative viability (NCI-H358; first compound 8 µM) of 0.842 and a relative viability (BEN; first compound 0.08 µM) of 0.976. It also gave a relative viability (BEN; first compound 0.8 µM) of 1.25, a relative viability (BEN; first compound 2.53 µM) of 1.09 and a relative viability (BEN; first compound 8 µM) of 0.898. The relative viability (NCI-H1792; first compound 0.08 µM) was 0.589, the relative viability (NCI-H1792; first compound 0.8 µM) was 0.607 and the relative viability (NCI-H1792; first compound 2.53 µM) was 0.72. For the same molecule, the relative viability (NCI-H1792; first compound 8 µM) was 0.434, the relative viability (HCC-827; first compound 0.08 µM) was 0.997 and the relative viability (HCC-827; first compound 0.8 µM) was 0.949. For the same molecule, the relative viability (HCC-827; first compound 2.53 µM) was 0.992, the relative viability (HCC-827; first compound 8 µM) was 1.01 and the relative viability (SK-MES-1; first compound 0.08 µM) was 1.17. It also gave a relative viability (SK-MES-1; first compound 0.8 µM) of 1.11, a relative viability (SK-MES-1; first compound 2.53 µM) of 1.17 and a relative viability (SK-MES-1; first compound 8 µM) of 1.04.
